In patent publication US5182276A, “Nootropic agent” (Santen Pharmaceutical Co., Ltd., priority 1989, dated 1993):
Structures can show the parent of a compound that is named as a salt.

How the values were obtained:
[1] = test system: cerebral ischemia / energy metabolic substances in the brain; assay: Test of Cerebral Energy Metabolism (bilateral common carotid artery ligation, SHR); format: in vivo, male SHR's (rat); settings: for Hippocampus E.C. (energy charge): **: P < 0.01 vs. Pathema Control (0.628 ± 0.026); for Cerebral Cortex E.C. (energy charge): **: P < 0.01 vs. Pathema Control (0.631 ± 0.0243); for Striatum E.C. (energy charge): **: P < 0.01 vs. Pathema Control (0.679 ± 0.032)
Experimental: 24-Week-old male SHR's were fixed on the back thereof under with 1.5% halothane anesthetic (70% N,O, 30% O2) and the neck thereof was subjected to a median incision. The cerebral ischemia was caused by immediately ligating bilateral common carotid artery with a silk fiber just before the recovery from the anesthetic state. 3.5 Hours after the ligation, the animals were sacrificed by irradiating them with microwaves (5 KW, 1.5 second). The brain tissues were collected and divided into cerebral cortex, hippocampus and striatum. The brain tissues were homogenized in a 0.6N aqueous perchloric acid solution and centrifuged at 3,000 rpm for 20 minutes. The resulting supernatant was used as the sample for detecting the energy metabolic substances. In the measurement, ATP-Uv test (available from Sigma Co., Ltd.) was used as ATP and lactate-UV test (available from Boeringer Mannheim Yamanouchi Co., Ltd.) was used as lactate. The detection of ADP and AMP was performed according to the method of Bergmeyer (Klin. Chem. Klin. Biochem., 1975, 13, p. 507). The energy charge (hereinafter referred to as "E.C.") which served as an indication of the degree of energy sufficiency due to high energy phosphoric acid of adenine nucleotide was calculated from the following relation according to the method of Atkinson (J. Biol. Chem., 1967, 242, p. 3329):
E.C.=(ATP+1/2ADP)/(ATP+ADP+AMP)
In the test, the compound to be tested was suspended in a 0.5% aqueous solution of methyl cellulose and was administered, through an oral route, to the animals to be tested 30 minutes before the ligation of the both common carotid arteries.

[2] = Test of Hypoxia-Inhibiting Effect (survival time under nitrogen gas); format: in vivo, ICR mice; settings: 100 mg/kg oral
Experimental: In this test, groups (9 to 10 mice each) of ICR mice were employed. The compound to be tested was suspended in a 0.5% aqueous methyl cellulose solution and was orally administered. 60 Minutes after the administration,each mouse was placed in a transparent container (volume 500m μ) having an exhaust hole and N, gas was supplied to the container at a rate of 5μ/min. The time (survival time in sec.) ,elapsed from the initiation of the nitrogen gas supply until the cessation of breathing of each mouse was determined. As the compounds to be tested, there was used (+)-3,4-dihydro-2-(5-methoxy-2- (3-(N-methyl-N-[2-[(3,4]propoxy]phenyl]-4-methyl-3-oxo-2H-1,4-benzothiazine fumarate (hereinafter referred to as "Compound A") which is a representative compound of the present invention. The results obtained are listed in the following Table 1.

[3] = Water Maze-Learning Test after cerebral ischemia; format: in vivo, male SHR's (rat); settings: for Swimming Time, 3rd Session: **: P < 0.01 vs. Pathema Control (114.9 ± 16.93); for Swimming Time, 2nd Session: **: P < 0.01 vs. Pathema Control (130.0 ± 17.13); for Swimming Time, 1st Session: **: P < 0.01 vs. Pathema Control (167.5 ± 9.59)
Experimental: (§1) 25-Week-old male SHR's were fixed on the back thereof under anesthetization with 1.5% halothane anesthetic (70% N,O, 30% O2) and the neck thereof was subjected to a median incision. The cerebral ischemia was caused by immediately ligating the both common carotid arteries with,a silk fiber after a vinyl tube was attached to the artery and just before the recovery from the anesthetic state. 3.5 Hours after the ligation, the silk fiber was cut to again initiate the blood circulation. In the test, the compound to be tested was suspended in a 0.5% aqueous solution of methyl cellulose and was initially administered, through oral route, to the animals to be tested 30 minutes before the ligation of the common artery and thereafter it was continuously administered every day over 16 days through oral route provided that the compound was not administered during the behavioral pharmacologic tests of the animals and was administered after completion of the tests.
This water maze-learning test was initiated on 7th day after the cerebral ischemia condition was formed. A cylindrical water tank having a diameter of 1.2 m was filled with black water and the temperature thereof was maintained at 20±1° C. A platform which was submerged in the water to a depth of 2 cm and could not be externally seen through the water (hereinafter referred to as "platform") was placed at the central point existing between the center of the water tank and the wall thereof.
The water maze-learning test was performed once a day (one session) which was continuously performed over three days (three sessions). In the first session (1st day), the animal was allowed to freely swim in the water tank which was free of platforms, then a platform was positioned in the tank and the animal was allowed to learn the presence of the platform of refuge by placing the animal thereon for 30 seconds. The animal was released through four predetermined points on the wall of the water tank over four times and the total time (swimming time (sec)) required until the animal got on the platform over four trials was determined. After the four trials, the animal was again allowed to stand on the platform for […] and thus the first session was completed. In this respect, the maximum total time required over four trials was determined to be 180 seconds. […] The 2nd and 3rd sessions were performed under the same conditions used in the first session except that the test animal was not allowed to freely swim in the water tank prior to the initiation of the test. The spatial positions of the water tank and the platform in the laboratory were not changed at all during the water maze-learning test term.

[4] = Acute toxicity, oral; settings: rat, in vivo, rats
Text: The acute toxicity thereof was investigated by orally administering the compounds of Formula (I) to rats and they were confirmed to be highly safe.
Compound A was orally administered to rats to determine the acute toxicity thereof.

[5] = Trial Passive Avoidance Training after cerebral ischemia; format: in vivo, male SHR's (rat); settings: for Reaction Latency: cut-off 300 s, **: P < 0.01 vs. Pathema Control (146.7 ± 30.42)
Experimental: as §1
As a testing apparatus, there was used a training box comprising a bright room whose floor was formed from grid, a dark room capable of applying footshock through the floor made of grid and a port opening equipped with a guillotine door disposed at the boundary of these rooms through which the animal could freely move between these two rooms. First, as an acquired trial, the rat was put in the bright room for 30 seconds while the guillotine door was closed, then the guillotine door was opened and the time required for the rat to enter into the dark room through the guillotine door was determined. […] After 24 hours, the rat was again put in the bright room, 30 seconds thereafter the guillotine door was opened and the time required for the animal to confirm the entrance and to enter into the dark room (the reaction latency) was determined. […]

[6] = test system: Choline acetyltransferase (ChAT); assay: Activity of Choline acetyltransferase (ChAT) in the striatum after cerebral ischemia; format: in vivo, male SHR's (rat)
Experimental: as §1
After completion of the learning test, the rat was sacrificed by decapitation and the activity of ChAT which had been believed to be involved in the memory function of animals was determined. The brain tissues were homogenized in 0.05% Triton X-100 containing-phosphate buffer solution (pH 7.4) and the resulting supernatant was used as a sample for determining the ChAT activity. The activity of ChAT was determined according to the method of Fonnum (J. Neurochem., 1975,24, p. 407).

Compound: COc1ccc(OCCCN(C)CCOc2ccc3c(c2)OCO3)c(C2Sc3ccccc3N(C)C2=O)c1 (single isomer, unassigned; (+)) [Compound A, (+)-3,4-dihydro-2-(5-methoxy-2-(3-(N-methyl-N-[2-[(3,4]propoxy]phenyl]-4-methyl-3-oxo-2H-1,4-benzothiazine fumarate]
- Hippocampus E.C. (energy charge) ([1]; 10 mg/kg oral): 0.706 ± 0.025
- Cerebral Cortex E.C. (energy charge) ([1]; 10 mg/kg oral): 0.705 ± 0.0237
- Striatum E.C. (energy charge) ([1]; 10 mg/kg oral): 0.703 ± 0.025
- reduction in the E.C. due to the ischemia (in words) ([1]; 10 mg/kg oral, cerebrum cortex and hippocampus): significantly improved
- changes in the ATP and the lactate due to the ischemia (in words) ([1]; 25 mg/kg oral): significantly inhibited
- effect on the ratio lactate/pyruvate (in words) ([1]; 25 mg/kg oral): substantially improved
- ATP ([1]; 25 mg/kg oral, 30 min before 3.5 h ligation, average ± standard error, **: P < 0.01 vs. Pathema Control (10.0 ± 1.03)): 16.9 ± 0.87 n mole/mg Protein
- Lactate/Pyruvate ([1]; 25 mg/kg oral, 30 min before 3.5 h ligation, average ± standard error, **: P < 0.01 vs. Pathema Control (40.3 ± 6.78)): 19.1 ± 2.71
- Lactate ([1]; 25 mg/kg oral, 30 min before 3.5 h ligation, average ± standard error, **: P < 0.01 vs. Pathema Control (128.6 ± 15.84)): 62.3 ± 10.20 n mole/mg Protein
- Hippocampus E.C. (energy charge) ([1]; 30 mg/kg oral): 0.762 ± 0.022
- Cerebral Cortex E.C. (energy charge) ([1]; 30 mg/kg oral): 0.764 ± 0.0078
- Striatum E.C. (energy charge) ([1]; 30 mg/kg oral): 0.768 ± 0.0063
- reduction in the E.C. due to the ischemia (in words) ([1]; 30 mg/kg oral, cerebral cortex, hippocampus and striatum): completely inhibited
- effect on survival time under low oxygen supply (in words) [2]: significant effect of extending survival time
- Survival Time ([2]; 60 min before N2, average ± standard error, **: P < 0.01 vs. Control (25.8 ± 0.61)): 35.7 ± 1.28 s
- Swimming Time, 3rd Session ([3]; 10 mg/kg oral): 40.9 ± 11.82 s
- Swimming Time, 2nd Session ([3]; 10 mg/kg oral): 61.4 ± 15.06 s
- Swimming Time, 1st Session ([3]; 10 mg/kg oral): 105.8 ± 16.50 s
- Swimming Time, 3rd Session ([3]; 30 mg/kg oral): 34.5 ± 3.60 s
- Swimming Time, 2nd Session ([3]; 30 mg/kg oral): 59.6 ± 9.60 s
- Swimming Time, 1st Session ([3]; 30 mg/kg oral): 97.2 ± 18.85 s
- time required to reach the base (in words) ([3]; vs. pathema control group): significantly shorter
- LD50 [4]: 293 mg/kg
- Reaction Latency ([5]; 10 mg/kg oral): 271.1 ± 19.21 s
- Reaction Latency ([5]; 30 mg/kg oral): 280.8 ± 19.25 s
- average reaction latency (in words) ([5]; vs. pathema control group): significantly longer
- ChAT activity in the striatum ([6]; 10 mg/kg oral, *: P < 0.05 vs. Pathema Control (3.43 ± 0.097)): 3.84 ± 0.102 n mol/mg Protein
- ChAT activity in the striatum ([6]; 30 mg/kg oral, **: P < 0.01 vs. Pathema Control (3.43 ± 0.097)): 3.94 ± 0.201 n mol/mg Protein
- lowering of the activity of ChAT in the striatum due to the cerebral ischemia (in words) ([6]; rat, in vivo): inhibited
